Assay results from patent publication US12036281B2 (ONEHEALTHCOMPANY, INC., priority 2019, dated 2024).

Legend:
cancer = assay: Treatment of canine cancers with targeted drug, disease progression and overall survival compared to historical controls; format: in vivo; conditions: alone or in combination with other anti-cancer agents
Procedure: (§1) Canine subjects with cancer were treated with Rapamycin alone or in combination with other anti-cancer agents (Tables 3 and 12-26). The subjects were administered Rapamycin orally with a starting dose of 0.1 mg/kg/day and were monitored for disease progression compared to historical controls.
Canine subjects with cancer were treated with Dasatinib alone or in combination with other anti-cancer agents (Tables 4 and 12-26). The subjects were administered Dasatinib orally with a starting dose of 0.5-0.7 mg/kg/day and were monitored for disease progression compared to historical controls.
as §1, with “Vorinostat” for “Rapamycin”, “7” for “3”, “30-60 mg/kg/every other day” for “0.1 mg/kg/day”
as §1, with “Crizotinib” for “Rapamycin”, “(Table 9” for “(Tables 3”, “1 mg/kg/day-2” for “0.1”
as §1, with “Sorafenib” for “Rapamycin”, “10” for “3”, “1 mg/kg/day-3” for “0.1”, “mg/kg/day or 1 mg/kg/day-3 mg/kg/week” for “mg/kg/day”

[1] = Number and type of adverse effects reported in treated canines; format: in vivo; conditions: canine subjects with cancer; for subjects with clinically reported outcomes that experienced adverse effects: diarrhea, vomiting, inappetence, lethargy, skin lesions, liver enzymes, cardiac toxicity, hemorrhagic gastroenteritis monitored, cohorts 192, 94, 162, 275, 89, 83, 9 subjects
Procedure: Canine subjects with cancer were treated with pharmaceutical compositions comprising Rapamycin and were monitored for adverse effects including: diarrhea, vomiting inappetence, lethargy, skin lesions, progressive liver enzyme evaluations, increased cardiac toxicity and hemorrhagic gastroenteritis.
Canine subjects with cancer were treated with pharmaceutical compositions comprising Dasatinib and were monitored for adverse effects including: diarrhea, vomiting inappetence, lethargy, skin lesions, progressive liver enzyme evaluations, increased cardiac toxicity and hemorrhagic gastroenteritis.
Canine subjects with cancer were treated with pharmaceutical compositions comprising Vorinostat and were monitored for adverse effects including: diarrhea, vomiting inappetence, lethargy, skin lesions, progressive liver enzyme evaluations, increased cardiac toxicity and hemorrhagic gastroenteritis.
Canine subjects with cancer were treated with pharmaceutical compositions comprising Crizotinib and were monitored for adverse effects including: diarrhea, vomiting inappetence, lethargy, skin lesions, progressive liver enzyme evaluations, increased cardiac toxicity and hemorrhagic gastroenteritis.
Canine subjects with cancer were treated with pharmaceutical compositions comprising Sorafenib and were monitored for adverse effects including: diarrhea, vomiting inappetence, lethargy, skin lesions, progressive liver enzyme evaluations, increased cardiac toxicity and hemorrhagic gastroenteritis.

Row | Compound | subjects with clinically reported outcomes that experienced adverse effects [1] [%] | also measured
1 | C[C@@H](Oc1cc(-c2cnn(C3CCNCC3)c2)cnc1N)c1c(Cl)ccc(F)c1Cl [Crizotinib] | 43 | overall survival compared to control subjects (cancer; Crizotinib orally, starting dose 1 mg/kg/day-2 mg/kg/day): significant improvement
2 | Cc1nc(Nc2ncc(C(=O)Nc3c(C)cccc3Cl)s2)cc(N2CCN(CCO)CC2)n1 [Dasatinib] | 31 | –
3 | Cc1ccc(NC(=O)c2ccc(CN3CCN(C)CC3)cc2)cc1Nc1nccc(-c2cccnc2)n1 [Imatinib] | – | overall survival compared to control subjects (cancer; Imatinib orally, starting dose 10 mg/kg/day): significant improvement
4 | CS(=O)(=O)CCNCc1ccc(-c2ccc3ncnc(Nc4ccc(OCc5cccc(F)c5)c(Cl)c4)c3c2)o1 [Lapatinib] | 22 | overall survival compared to control subjects (cancer; Lapatinib orally, starting dose 5-10 mg/kg/day): significant improvement
5 | CO[C@H]1C[C@@H]2CC[C@@H](C)[C@@](O)(O2)C(=O)C(=O)N2CCCC[C@H]2C(=O)O[C@H]([C@H](C)C[C@@H]2CC[C@@H](O)[C@H](OC)C2)CC(=O)[C@H](C)/C=C(\C)[C@@H](O)[C@@H](OC)C(=O)[C@H](C)C[C@H](C)/C=C/C=C/C=C/1C [Rapamycin] | 21 | –
6 | CNC(=O)c1cc(Oc2ccc(NC(=O)Nc3ccc(Cl)c(C(F)(F)F)c3)cc2)ccn1 [Sorafenib] | – | overall survival compared to control subjects (cancer; Sorafenib orally, starting dose 1 mg/kg/day-3 mg/kg/day or 1 mg/kg/day-3 mg/kg/week): significant improvement; subjects with clinically reported outcomes that experience adverse effects ([1]; result in words): A minority of subjects
7 | CC(=O)Nc1cccc(-n2c(=O)n(C3CC3)c(=O)c3c(Nc4ccc(I)cc4F)n(C)c(=O)c(C)c32)c1 [Trametinib] | 24 | –
8 | O=C(CCCCCCC(=O)Nc1ccccc1)NO [Vorinostat] | 34 | overall survival compared to control subjects (cancer; Vorinostat orally, starting dose 30-60 mg/kg/every other day): significant improvement
